The results in this text go back to the NIST ThermoML archive (doi:10.1021/je700690q).

Numbers after ± are expanded uncertainties.

The conditions of the data set: Liquid, Closed cell (Static) method.

In general, vapor or sublimation pressure refers to the equilibrium pressure above the liquid or solid. As to `CO` [methanol], the “vapor or sublimation pressure” value (364.52 K) is on record as 267.6 ± 1.4 kPa.

Turning to `CCCO` [propan-1-ol], the “vapor or sublimation pressure” value (364.53 K) is listed as 81.2 ± 0.9 kPa.

`CCC(C)O` (stereo unspecified) [butan-2-ol]: the “vapor or sublimation pressure” value (364.52 K) is 75.4 ± 0.9 kPa.

For `CC(C)O` [propan-2-ol], under “364.51 K”, the “vapor or sublimation pressure” value turned out to be 144.1 ± 1 kPa.

For the molecule `CC(C)(C)O` [2-methylpropan-2-ol], the “vapor or sublimation pressure” value (364.52 K) turned out to be 143.3 ± 1 kPa.

`C/C=C/C` [(E)-2-butene]: the “vapor or sublimation pressure” value (364.52 K) is 1268.7 ± 5.7 kPa [middle of 5 runs].
